Data taken from the Biogen ADME set (Fang et al. 2023).
Values after ≈ are worked out from the molar mass of the structure shown.

Details: for aqueous solubility: pH 6.8

SMILES | MDR1-MDCK efflux ratio | intrinsic clearance, human liver microsomes [mL/min/kg] | intrinsic clearance, rat liver microsomes [mL/min/kg] | aqueous solubility [µg/mL] | fraction unbound, human plasma | fraction unbound, rat plasma
COC(c1ccccc1)(c1ccccc1)[C@H](Oc1nc(C)cc(C)n1)C(=O)O | 38.3 | ≤ 4.74 | ≤ 10.7 |  |  | 
CC(C)(C)C(=O)Nc1nnc(Cc2ccccc2)s1 | 1.19 | ≤ 4.74 | 658 | 35.2 (≈ 128 µM) |  | 
O=C(Nc1cnn(-c2ncccn2)c1)C1CCCCC1 |  | ≤ 4.74 | 73.1 |  |  | 
CCCC1(CNC(=O)Cn2ccc(=O)cc2)CCC1 | 14.3 | ≤ 4.74 | 14.6 |  |  | 
O=C(c1ccccc1)N1CCN(C(=O)c2ccc(-c3ccccc3Cl)o2)CC1 | 0.683 | 126 | 445 | 34.9 (≈ 88.4 µM) |  | 
O=C(O)c1ccc(N2CCCC2)c(F)c1 | 0.865 | ≤ 4.74 | 14.4 | 27.3 (≈ 130 µM) |  | 
O=C(NCc1ccc(O)c(O)c1)c1ccc2ccccc2n1 |  | ≤ 4.74 | 315 | 55.4 (≈ 188 µM) |  | 
NC(=O)C1(Cc2ccc(-c3cccnc3)cc2)CCN(Cc2cccc(Cl)c2)CC1 | 4.87 | 183 | 1360 | 83.8 (≈ 199 µM) |  | 
CN1CCc2nc(NC(=O)c3cncn3-c3ccccc3)sc2C1 | 20.3 | 5.11 | 63.6 | 43.4 (≈ 128 µM) |  | 
CC(C)Oc1ccc(CCNC(=O)N2CCC[C@H]2C(=O)N2CCCCC2)cc1 | 50.9 | 19.7 | 492 |  |  | 
Cn1cnnc1-c1cccc(NS(=O)(=O)c2ccc(N3CCCC3=O)cc2)c1 | 3.7 | ≤ 4.74 | 18 | 56.6 (≈ 142 µM) |  | 
c1cc(CC2CCNCC2)c2cccnc2c1 |  | ≤ 4.74 | 141 | 52.2 (≈ 231 µM) |  | 
COCCc1nc(-c2ccccc2-c2ccccc2)n(CCO)n1 | 15.9 | 24.5 | 182 | 26.4 (≈ 81.6 µM) |  | 
Cc1cnc(NCc2ccccc2-n2ccnc2)nc1N(C)C | 11.3 | 33.7 | 486 | 52.2 (≈ 169 µM) |  | 
c1ccc(-c2nccc(NCc3nnc4n3CCCCC4)n2)cc1 |  | 78.9 | 448 |  |  | 
CN(Cc1ccccc1)C1(C(=O)N2CCNC(=O)CC2)Cc2ccccc2C1 | 8.66 | 113 | 2760 |  | 0.0803 | 0.0818
O=C([C@H]1CCCN(Cc2ccc(Cl)cc2)C1)N1CCc2ccccc2C1 | 0.788 | 251 | 3840 | 43.2 (≈ 117 µM) |  | 

Continued, values first:

MDR1-MDCK efflux ratio | intrinsic clearance, human liver microsomes [mL/min/kg] | intrinsic clearance, rat liver microsomes [mL/min/kg] | aqueous solubility [µg/mL] | fraction unbound, human plasma | fraction unbound, rat plasma | SMILES
 | ≤ 4.74 | 75.9 |  |  |  | COc1cccc(CNC(=O)C2(C#N)CCOCC2)c1
0.509 | 88.2 | 316 | 23.5 (≈ 96.2 µM) |  |  | Cc1n[nH]c(-c2c(C)c3cc(F)ccc3n2C)n1
 | ≤ 4.74 | 90.1 | 43.9 (≈ 111 µM) |  |  | COc1ccc(C(=O)N2CCCC2)cc1NC(=O)c1cc(F)c(F)c(F)c1F
8.95 | 6.75 | 129 | 31 (≈ 107 µM) |  |  | CCCn1ccnc1CNc1nc2c(s1)c(C)nn2C
6.78 | 34.2 | 481 | 14.3 (≈ 48.5 µM) |  |  | O=c1cc(CN2CCCCc3ccccc32)[nH]c2ccnn12
 |  |  | 0.35 (≈ 1.09 µM) |  |  | COc1cccc(/C=C2/N=C(c3ccccc3C)NC2=O)c1OC
20.9 | ≤ 4.74 | ≤ 10.7 |  |  |  | O=C(Nc1ccc(Cl)nc1)NC1CCN(C2CCCC2)CC1
 | 124 | 2100 | 1.05 (≈ 3.6 µM) |  |  | COCCN(Cc1cccs1)Cc1cccc(C)c1O
0.701 | 66.5 | 7100 |  |  |  | c1ccc(NCc2ccc3c(c2)OCCCO3)nc1
0.455 |  |  | 0.4 (≈ 1.07 µM) |  |  | CC(C)(C)c1ccc(C(=O)Nc2ccc(C(=O)Nc3ccccc3)cc2)cc1
1.55 | ≤ 4.74 | 47.9 | 31.5 (≈ 140 µM) |  |  | O=c1[nH]c2cnccc2n1Cc1ccccc1
72 | 10.3 | 182 | 30.1 (≈ 100 µM) |  |  | CCCCCNC(=N)N/N=C/c1c[nH]c2ccc(OC)cc12
2.1 | 11.2 | 270 | 38.6 (≈ 130 µM) |  |  | Cc1cc(C)cc(C(=O)Nc2nn(C(C)(C)C)cc2C#N)c1
15.5 | 44.3 | 219 | 3.36 (≈ 6.78 µM) |  |  | CN(C[C@@H]1COCCO1)S(=O)(=O)Nc1ccc2ccc3ncc(-c4cnn(C)c4)cc3c(=O)c2c1
 |  |  | 10.1 (≈ 57 µM) |  |  | O=C(O)Cc1nc2ccccc2[nH]1
 |  |  | 0.48 (≈ 1.55 µM) |  |  | Cc1cccc2cc(C(N)=S)/c(=N/Nc3ccccc3)oc12
1.23 | 24.8 | 146 | 35.1 (≈ 124 µM) |  |  | O=C(CCNc1ncccn1)N1CCc2ccccc2C1
23.9 | 18.9 | 131 | 52.1 (≈ 169 µM) |  |  | O=C(NC[C@H]1COCc2nc3ccccc3n21)c1ccncc1
0.978 | 5.86 | 14.5 | 37.6 (≈ 152 µM) |  |  | CNC(=O)Cc1nc(-c2cncc(C)c2)cs1
0.641 | 20.9 | 133 | 34.8 (≈ 140 µM) |  |  | O=C(Cc1cccs1)NCc1ccccc1F
30.8 | ≤ 4.74 | ≤ 10.7 | 39.6 (≈ 128 µM) |  |  | CN(Cc1ccn(-c2ccccc2)n1)C(=O)c1ccc(O)nc1
0.67 | 51.8 | 53.1 | 13.3 (≈ 45 µM) |  |  | CCc1ccccc1NC(=O)c1cc(C)nc2onc(C)c12
 | ≤ 4.74 | 75.8 | 64.7 (≈ 204 µM) |  |  | CCOC(C)C(=O)N1CCC(n2c(=O)[nH]c3ccccc32)CC1 (configuration not stated)
1.17 | ≤ 4.74 | 42.6 |  |  |  | Cn1cc(-c2cccc3c(C(N)=O)cccc23)cn1
